According to article PMC4623978, “Modulation of Closed−State Inactivation in Kv2.1/Kv6.4 Heterotetramers as Mechanism for 4−AP Induced Potentiation” (PLoS ONE, 2015):

Assays:
Kv2.1/Kv6.4_S6c_Kv9.3 = system: T1, Kv2.1/Kv6.4_S6c_Kv9.3; test: whole-cell patch clamp, current block; assay type: cell-based, Homo sapiens (Kv2.1, Kv6.4); Mus musculus (Kv9.3 S6c); settings: pH 7.35 outside, 20-23 °C
T1 construct: gene KCNB1

[1] = molecular target: T2, Kv2.1/Kv5.1 heterotetramer (Homo sapiens, UniProt Q14721+Q9H3M0); test: whole-cell patch clamp, current block; assay type: cell-based; settings: pH 7.35 outside, 20-23 °C
T2 construct: gene KCNB1; co-transfected in mouse Ltk- cells, KvS:Kv2.1 10:1 cDNA
T2 sequence (Q14721 1-858): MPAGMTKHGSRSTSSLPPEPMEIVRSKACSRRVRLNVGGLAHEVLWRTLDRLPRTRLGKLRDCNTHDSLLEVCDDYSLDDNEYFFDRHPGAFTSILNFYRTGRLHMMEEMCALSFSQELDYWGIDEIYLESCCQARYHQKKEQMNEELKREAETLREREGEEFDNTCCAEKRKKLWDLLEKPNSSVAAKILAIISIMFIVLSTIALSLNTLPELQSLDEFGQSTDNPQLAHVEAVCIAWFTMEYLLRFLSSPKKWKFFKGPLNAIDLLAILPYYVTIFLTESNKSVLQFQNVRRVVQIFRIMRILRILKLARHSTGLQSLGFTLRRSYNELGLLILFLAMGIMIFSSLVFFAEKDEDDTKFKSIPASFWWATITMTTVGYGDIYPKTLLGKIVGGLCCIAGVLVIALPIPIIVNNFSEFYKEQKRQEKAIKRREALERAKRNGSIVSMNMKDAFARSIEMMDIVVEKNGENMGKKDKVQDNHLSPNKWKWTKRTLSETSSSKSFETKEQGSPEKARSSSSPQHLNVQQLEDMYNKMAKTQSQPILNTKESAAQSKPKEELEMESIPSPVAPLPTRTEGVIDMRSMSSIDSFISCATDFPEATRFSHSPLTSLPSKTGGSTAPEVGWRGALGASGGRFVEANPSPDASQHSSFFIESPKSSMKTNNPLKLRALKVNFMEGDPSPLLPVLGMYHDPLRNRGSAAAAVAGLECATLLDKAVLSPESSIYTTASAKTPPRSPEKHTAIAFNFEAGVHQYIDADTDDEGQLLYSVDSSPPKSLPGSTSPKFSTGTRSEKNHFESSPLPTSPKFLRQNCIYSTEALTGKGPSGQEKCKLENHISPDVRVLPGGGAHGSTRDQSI
T2 sequence (Q9H3M0 1-494): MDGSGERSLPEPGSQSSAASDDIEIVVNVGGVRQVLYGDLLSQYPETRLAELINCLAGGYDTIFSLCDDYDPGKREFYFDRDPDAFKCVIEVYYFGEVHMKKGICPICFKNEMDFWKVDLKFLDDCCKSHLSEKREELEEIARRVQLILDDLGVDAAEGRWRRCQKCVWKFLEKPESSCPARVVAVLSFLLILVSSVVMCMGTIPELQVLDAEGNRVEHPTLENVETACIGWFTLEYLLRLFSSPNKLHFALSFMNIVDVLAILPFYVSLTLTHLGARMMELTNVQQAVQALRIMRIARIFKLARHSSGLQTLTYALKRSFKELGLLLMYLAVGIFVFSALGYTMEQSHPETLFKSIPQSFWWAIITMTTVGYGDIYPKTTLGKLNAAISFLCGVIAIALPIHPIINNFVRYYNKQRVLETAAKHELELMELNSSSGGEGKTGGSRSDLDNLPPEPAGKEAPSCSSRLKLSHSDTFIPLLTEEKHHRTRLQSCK

Kv2.1 homotetramer = molecular target: T3, Kv2.1 homotetramer (Homo sapiens, UniProt Q14721); test: whole-cell patch clamp, Hill fit of current at +[…] mV; assay type: cell-based
T3 construct: gene KCNB1; full-length in eGFP-N1 vector, transiently expressed in mouse Ltk- cells; homotetramer
T3 sequence (Q14721 1-858): T2 sequence (Q14721 1-858)

[2] = molecular target: T4, Kv2.1/Kv6.4 heterotetramer (Homo sapiens, UniProt Q14721+Q8TDN1); test: as above; assay type: cell-based
T4 construct: gene KCNB1; co-transfected in mouse Ltk- cells, KvS:Kv2.1 10:1 cDNA; formerly named Kv6.3
T4 sequence (Q14721 1-858): T2 sequence (Q14721 1-858)
T4 sequence (Q8TDN1 1-519): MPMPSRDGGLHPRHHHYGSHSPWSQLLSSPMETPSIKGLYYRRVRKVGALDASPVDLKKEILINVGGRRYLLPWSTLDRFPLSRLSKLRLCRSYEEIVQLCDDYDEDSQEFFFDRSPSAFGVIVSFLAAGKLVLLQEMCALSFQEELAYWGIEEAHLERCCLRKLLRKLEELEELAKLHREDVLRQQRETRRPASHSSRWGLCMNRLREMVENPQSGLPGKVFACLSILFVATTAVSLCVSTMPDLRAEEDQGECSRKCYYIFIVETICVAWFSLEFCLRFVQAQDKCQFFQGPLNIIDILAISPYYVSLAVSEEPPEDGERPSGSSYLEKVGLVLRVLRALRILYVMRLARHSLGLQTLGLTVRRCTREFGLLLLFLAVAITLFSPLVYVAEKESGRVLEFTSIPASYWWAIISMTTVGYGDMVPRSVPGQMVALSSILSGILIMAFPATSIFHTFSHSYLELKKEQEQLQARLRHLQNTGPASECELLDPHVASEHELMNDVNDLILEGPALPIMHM

Compound | % inhibition at 18 mM (Kv2.1/Kv6.4_S6c_Kv9.3) | % inhibition at 18 mM [1] | IC50 (Kv2.1 homotetramer) | IC50 [2]
Nc1ccncc1 [4-aminopyridine] | 12 ± 3% | 10 ± 2% | – | –
O=C(NCC1CCCCN1)c1cc(OCC(F)(F)F)ccc1OCC(F)(F)F (stereo not drawn) [flecainide] | – | – | 7.4 ± 0.8 µM | 2 ± 0.1 µM
C=C[C@H]1C[N@@]2CC[C@H]1C[C@@H]2[C@@H](O)c1ccnc2ccc(OC)cc12 [quinidine] | – | – | 7.2 ± 0.8 µM | 3 ± 0.1 µM
